# Target: T1, collagen type 1 of the scaffold (CMI) (Bos taurus, UniProt P02453+P02465)
# T1 construct: the CMI is build out of collagen type 1 from bovine origin (FDA approved implant); from tissue; host or cells: bovine-derived collagen, in the form of the commercial collagen meniscal implant (CMI) scaffold
# Test: Immunofluorescence (IF) assay for PDGF-BB on the collagen meniscal implant (CMI)
# Assay type: binding, bovine
# Method: Pictures are merged z-stack files from confocal microscopy.
# (1) Complete assay; (2) Blank assay; (3) Assay without peptide; (4) Assay without growth factor (PDGF); (5) Assay without primary antibody. Note: PDGF appears to bind well to collagen type 1 of the scaffold even without pre-incubation of the bi-peptide structure. Therefore the heparin-binding domain part of the peptide for PDGF can't be evaluated according to this assay.
# FIG. 10 is an image of a Tile confocal scan of the CMI in the IF assay for PDGF-BB. The complete surface of the CMI was able to bind with recombinant PDGF.
# T1 sequence (P02453 162-1217 limits assumed): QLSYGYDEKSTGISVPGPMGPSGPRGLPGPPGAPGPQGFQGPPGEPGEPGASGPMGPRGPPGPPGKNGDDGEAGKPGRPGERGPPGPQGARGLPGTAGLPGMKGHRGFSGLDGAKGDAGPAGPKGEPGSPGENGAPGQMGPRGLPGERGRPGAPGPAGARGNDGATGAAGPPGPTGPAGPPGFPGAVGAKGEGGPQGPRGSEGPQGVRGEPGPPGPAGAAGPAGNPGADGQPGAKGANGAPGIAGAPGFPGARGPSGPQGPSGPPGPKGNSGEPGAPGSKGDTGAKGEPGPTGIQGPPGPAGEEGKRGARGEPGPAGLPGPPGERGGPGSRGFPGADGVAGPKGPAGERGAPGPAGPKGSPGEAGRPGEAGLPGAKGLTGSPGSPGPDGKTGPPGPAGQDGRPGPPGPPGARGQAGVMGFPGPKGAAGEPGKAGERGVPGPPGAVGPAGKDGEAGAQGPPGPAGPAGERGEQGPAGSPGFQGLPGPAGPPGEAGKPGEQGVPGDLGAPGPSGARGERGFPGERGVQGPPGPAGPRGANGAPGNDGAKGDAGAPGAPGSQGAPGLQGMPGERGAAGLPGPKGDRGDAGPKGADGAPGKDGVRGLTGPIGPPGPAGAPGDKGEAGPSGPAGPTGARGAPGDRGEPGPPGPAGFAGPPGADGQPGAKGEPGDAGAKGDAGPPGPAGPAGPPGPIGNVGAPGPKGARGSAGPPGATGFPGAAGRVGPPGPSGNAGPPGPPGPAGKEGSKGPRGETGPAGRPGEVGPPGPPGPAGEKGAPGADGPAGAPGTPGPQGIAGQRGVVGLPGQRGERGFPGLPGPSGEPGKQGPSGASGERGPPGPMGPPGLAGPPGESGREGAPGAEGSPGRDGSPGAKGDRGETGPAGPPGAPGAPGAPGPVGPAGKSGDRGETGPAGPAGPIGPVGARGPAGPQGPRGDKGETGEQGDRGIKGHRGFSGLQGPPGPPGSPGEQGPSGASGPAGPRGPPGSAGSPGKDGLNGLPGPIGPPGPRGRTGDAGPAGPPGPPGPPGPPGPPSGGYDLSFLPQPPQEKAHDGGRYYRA
# T1 sequence (P02465 80-1117 limits assumed): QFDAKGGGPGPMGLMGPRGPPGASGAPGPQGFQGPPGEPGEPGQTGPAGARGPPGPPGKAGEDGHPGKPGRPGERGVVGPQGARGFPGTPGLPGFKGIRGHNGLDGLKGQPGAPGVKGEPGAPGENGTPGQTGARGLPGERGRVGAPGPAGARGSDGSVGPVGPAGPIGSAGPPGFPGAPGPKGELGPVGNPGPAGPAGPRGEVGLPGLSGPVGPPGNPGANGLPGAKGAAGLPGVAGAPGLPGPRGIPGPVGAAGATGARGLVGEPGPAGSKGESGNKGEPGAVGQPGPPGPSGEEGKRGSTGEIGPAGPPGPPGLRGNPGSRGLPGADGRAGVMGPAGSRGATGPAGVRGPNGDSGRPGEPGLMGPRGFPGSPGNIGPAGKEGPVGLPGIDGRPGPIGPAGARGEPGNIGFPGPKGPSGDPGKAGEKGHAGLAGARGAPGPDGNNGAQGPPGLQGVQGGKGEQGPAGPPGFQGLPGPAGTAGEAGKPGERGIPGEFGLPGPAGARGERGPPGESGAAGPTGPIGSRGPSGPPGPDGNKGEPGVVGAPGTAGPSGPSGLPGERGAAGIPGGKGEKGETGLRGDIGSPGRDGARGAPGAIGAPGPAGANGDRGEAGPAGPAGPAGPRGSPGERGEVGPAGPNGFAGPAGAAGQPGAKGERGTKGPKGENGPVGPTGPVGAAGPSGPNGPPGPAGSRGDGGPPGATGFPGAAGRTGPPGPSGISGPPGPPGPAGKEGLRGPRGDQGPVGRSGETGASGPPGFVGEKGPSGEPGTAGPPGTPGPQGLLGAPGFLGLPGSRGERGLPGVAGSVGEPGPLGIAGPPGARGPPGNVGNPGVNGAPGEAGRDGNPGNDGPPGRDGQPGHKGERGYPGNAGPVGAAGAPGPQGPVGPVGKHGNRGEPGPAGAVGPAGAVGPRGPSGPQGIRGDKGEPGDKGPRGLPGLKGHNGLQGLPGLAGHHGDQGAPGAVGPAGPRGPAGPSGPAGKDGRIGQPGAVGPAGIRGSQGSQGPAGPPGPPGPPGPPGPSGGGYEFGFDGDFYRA
substance,measurement,setting,value
PDGF,binding of PDGF to collagen type 1 of the scaffold,"IF assay on CMI, without pre-incubation of the bi-peptide structure",bind well
same,binding of recombinant PDGF to the CMI surface,"tile confocal scan of the CMI, complete surface",able to bind

# — patent publication US20230312685A1, “Bi-Peptide with Affinity to Extracellular Matrix Proteins or Cells and to Growth Factors for Tissue Healing and Regeneration” (Mayo Foundation for Medical Education and Research, priority 2019, published 2023)
